SMILES strings stand for the structures. Read-outs that look alike come from different tables or passages of the source.

From patent publication US20250051327A1, “MALT-1 MODULATORS” (EXSCIENTIA AI LIMITED, priority 2020, published 2025) come the findings set out here.

Experiment [1] has as its target Recombinant human MALT-1 (amino acids 340-824) (Homo sapiens (Human), UniProt Q9UDY8). As to the kind of experiment: MALT-1 inhibition assay (fluorogenic substrate Ac-LRSR-Rh110-DP). It is filed as biochemical. Conditions: recombinant human MALT-1, substrate Ac-LRSR-Rh110-DP. The procedure, abridged:
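MALT-1 at 3 nM final was reacted with 10 μM Ac-LRSR-Rh110-DP, with substrate addition starting the reaction. Incubation ran 60 minutes at 25° C in the dark. Percent inhibition from fluorescence across doses was fitted to a 4-parameter logistic to give IC50.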

The test system of experiment [2] is IL-2 secretion by human effector memory T cells (TEM). As to the kind of experiment: Effector memory T cells IL-2 release assay. It is filed as cell-based. Conditions: human CD4+ effector memory T cells, CD3/CD28 bead stimulation, 24 h, read-out: CD4TC IL2 IC50. The procedure, abridged:
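Human CD4+ effector memory T cells from healthy-donor buffy coats were stimulated with anti-CD3/CD28 Dynabeads and exposed to 10 semi-log compound doses (0.1% DMSO) for 24 h at 37 °C. Supernatant IL-2 was measured by HTRF, and IC50 came from a 4-parameter logistic fit to maximal IL-2. Viability was checked by flow cytometry.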

Chain of Recombinant human MALT-1 (amino acids 340-824) (Q9UDY8 340-824): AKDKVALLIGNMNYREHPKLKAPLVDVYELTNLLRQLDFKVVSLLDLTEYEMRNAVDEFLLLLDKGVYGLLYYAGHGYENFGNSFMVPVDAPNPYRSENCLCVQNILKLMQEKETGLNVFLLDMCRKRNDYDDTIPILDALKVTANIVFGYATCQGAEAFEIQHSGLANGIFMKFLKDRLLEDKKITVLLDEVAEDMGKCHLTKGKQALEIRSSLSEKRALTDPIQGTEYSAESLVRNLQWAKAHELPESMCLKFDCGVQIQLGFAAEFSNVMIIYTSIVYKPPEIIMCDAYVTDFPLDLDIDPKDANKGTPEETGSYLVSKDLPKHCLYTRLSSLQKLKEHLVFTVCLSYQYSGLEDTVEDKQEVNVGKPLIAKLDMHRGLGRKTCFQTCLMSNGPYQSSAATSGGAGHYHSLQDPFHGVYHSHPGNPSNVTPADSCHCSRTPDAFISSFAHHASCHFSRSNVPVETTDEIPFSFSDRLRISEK

For `CN(C(=O)C1CCS(=O)(=O)CC1)[C@@H](c1ccc(N2CCCc3c2cnc2cc(F)nn32)cc1)C(F)(F)F` [CPD0021664, N-methyl-1,1-dioxo-N-[(1S)-2,2,2-trifluoro-1-(4-{4-fluoro-2,3,7,10-tetraazatricyclo[7.4.0.0^2,6]trideca-1(9),3,5,7-tetraen-10-yl}phenyl)ethyl]-1λ^6-thiane-4-carboxamide], the 50% inhibitory concentration (IC50) in experiment [1] worked out at 83 nM; in experiment [2] (T-cell), 195 nM.
For `CN=[S@]1(=O)CC[C@H](C(=O)N(C)[C@@H](c2ccc(N3CCCc4c3cnc3cc(Cl)nn43)cc2)C(F)(F)F)CC1` (relative stereo) [CPD0072531, (1rel-R,4rel-R)—N-[(1S)-1-(4-{4-chloro-2,3,7,10-tetraazatricyclo[7.4.0.0^2,6]trideca-1(9),3,5,7-tetraen-10-yl}phenyl)-2,2,2-trifluoroethyl]-N-methyl-1-(methylimino)-1-oxo-1λ^e-thiane-4-carboxamide] the same measures were 38 nM and 141 nM.
For `COc1ccc2ncc(Nc3ccc([C@H](N(C)C(=O)[C@@H]4CCN(C(=O)CO)C4)C(F)(F)F)cc3)c([C@H](C)OC)c2n1` (relative stereo) [CPD0075883, (3 rel R)-1-(2-hydroxyacetyl)-N-methyl-N-[(1S)-2,2,2-trifluoro-1-[4-[[6-methoxy-4-[(1 rel S-1-methoxyethyl]-1,5-naphthyridin-3-yl]amino]phenyl]ethyl]pyrrolidine-3-carboxamide], the results for the concentration for half-maximal inhibition (IC50) in experiment [1] and in experiment [2] (T-cell) were 52 nM and 47 nM, respectively.
With `CN(C(=O)C1CCS(=O)(=O)CC1)[C@@H](c1ccc(N2CCCc3c2cnc2cc(Cl)nn32)cn1)C(F)(F)F` [CPD0073056, N-[(1S)-1-[5-(4-chloro-2,3,7,10-tetrazatricyclo[7.4.0.0^2,6]trideca-1(9),3,5,7-tetraen-10-yl)-2-pyridyl]-2,2,2-trifluoro-ethyl]-N-methyl-1,1-dioxo-thiane-4-carboxamide], the figures for the IC50 in experiment [1] and in experiment [2] (T-cell) were 197 nM and 780 nM, respectively.
Taken in the same sequence, the figures for `CN(C(=O)C1CC[S+]([O-])CC1)[C@@H](c1ccc(N2CCCc3c2cnc2cc(Cl)nn32)cc1)C(F)(F)F` (some centres unmarked) [CPD0019481] were 76 nM and 86 nM.
Taken in the same sequence, the figures for `CN(C(=O)C1CS(=O)(=O)C1)[C@@H](c1ccc(N2CCCc3c2cnc2cc(Cl)nn32)cc1)C(F)(F)F` [CPD0021575, N-[(1S)-1-(4-{4-chloro-2,3,7,10-tetraazatricyclo[7.4.0.0^2,6]trideca-1(9),3,5,7-tetraen-10-yl}phenyl)-2,2,2-trifluoroethyl]-N-methyl-1,1-dioxo-1λ^6-thietane-3-carboxamide] were 123 nM and 128 nM.
Taken in the same sequence, the figures for `O=C(Nc1cnc(-n2nccn2)c(Cl)c1)c1cnn(-c2cccc3ncccc23)c1NCCCCl` [CPD0019183] were 464 nM and 10000 nM.
Consider `COC(C)c1c(Nc2ccc([C@H](N(C)C(=O)C3CCS(=O)(=O)CC3)C(F)(F)F)cc2)cnc2ccc(Cl)nc12` (stereo partly drawn) [CPD0019496, N-[(1S)-1-(4-{[6-chloro-4-(1-methoxyethyl)-1,5-naphthyridin-3-yl]amino}phenyl)-2,2,2-trifluoroethyl]-N-methyl-1,1-dioxo-1λ^6-thiane-4-carboxamide], for which the IC50 worked out at 112 nM in experiment [1] and 22 nM in experiment [2] (T-cell).
Taken in the same sequence, the figures for `CN(C(=O)CC1CS(=O)(=O)C1)[C@@H](c1ccc(N2CCCc3c2cnc2cc(Cl)nn32)cc1)C(F)(F)F` [CPD0072798, N-[(1S)-1-(4-{4-chloro-2,3,7,10-tetraazatricyclo[7.4.0.0^2,6]trideca-1(9),3,5,7-tetraen-10-yl}phenyl)-2,2,2-trifluoroethyl]-2-(1,1-dioxo-1λ^6-thietan-3-yl)-N-methylacetamide] were 142 nM and 200 nM.
Taken in the same sequence, the figures for `CN(C(=O)[C@@H]1C[C@H]2CC[C@@H](C1)S2(=O)=O)[C@@H](c1ccc(N2CCCc3c2cnc2cc(Cl)nn32)cc1)C(F)(F)F` [CPD0072938, (1R,3R,5S)-N-[(1S)-1-(4-{4-chloro-2,3,7,10-tetraazatricyclo[7.4.0.0^2,6]trideca-1(9),3,5,7-tetraen-10-yl}phenyl)-2,2,2-trifluoroethyl]-N-methyl-8,8-dioxo-8λ^6-thiabicyclo[3.2.1]octane-3-carboxamide] were 90 nM and 92 nM.
As for `COc1cncc2c1CCCN2c1ccc(C(N(C)C(=O)C2CCS(=O)(=O)CC2)C(F)(F)F)cc1` (stereo in doubt) [CPD0021939, N-methyl-1,1-dioxo-N-[(1S)-2,2,2-trifluoro-1-[4-(5-methoxy-3,4-dihydro-2H-1,7-naphthyridin-1-yl)phenyl]ethyl]thiane-4-carboxamide], the IC50 in experiment [1] stood at 271 nM; in experiment [2] (T-cell), 894 nM.
Taken in the same sequence, the figures for `CC(=O)N1CCC[C@H](C(=O)N(C)[C@@H](c2ccc(N3CCCc4c3cnc3cc(Cl)nn43)cc2)C(F)(F)F)C1` (relative stereo) [CPD0073500, (3rel-S)-1-acetyl-N-[(1S)-1-(4-{4-chloro-2,3,7,10-tetraazatricyclo[7.4.0.0^2,6]trideca-1(9),3,5,7-tetraen-10-yl}phenyl)-2,2,2-trifluoroethyl]-N-methylpiperidine-3-carboxamide] were 167 nM and 267 nM.
For `CN(C(=O)[C@H]1CCC(=O)NC1)[C@@H](c1ccc(N2CCCc3c2cnc2cc(Cl)nn32)cc1)C(F)(F)F` (relative stereo) [CPD0073569, (3rel-S)-N-[(1S)-1-(4-{4-chloro-2,3,7,10-tetraazatricyclo[7.4.0.0^2,6]trideca-1(9),3,5,7-tetraen-10-yl}phenyl)-2,2,2-trifluoroethyl]-N-methyl-6-oxopiperidine-3-carboxamide] the same measures were 47 nM and 140 nM.
As to `COc1ccc2ncc(Nc3ccc([C@@H](N(C)C(=O)[C@H]4CC[S@@](=N)(=O)CC4)C(F)(F)F)cc3)c([C@H](C)OC)c2n1` (relative stereo) [CPD0077186, (1 rel-r,4rel-s)-1-imino-N-methyl-1-oxo-N-[(1R)-2,2,2-trifluoro-1-[4-({6-methoxy-4-[(1 rel-S)-1-methoxyethyl]-1,5-naphthyridin-3-yl}amino)phenyl]ethyl]-1λ^6-thiane-4-carboxamide], the half-maximal inhibitory concentration (IC50) in experiment [1] was determined as 126 nM; in experiment [2] (T-cell), 158 nM.
Taken in the same sequence, the figures for `CN(C(=O)[C@@H]1CCS(=O)(=O)C1)[C@@H](c1ccc(N2CCCc3c2cnc2cc(Cl)nn32)cc1)C(F)(F)F` (relative stereo) [CPD0022135, (3rel-S)-N-[(1S)-1-(4-{4-chloro-2,3,7,10-tetraazatricyclo[7.4.0.0^2,6]trideca-1(9),3,5,7-tetraen-10-yl}phenyl)-2,2,2-trifluoroethyl]-N-methyl-1,1-dioxo-1λ^6-thiolane-3-carboxamide] were 84 nM and 95 nM.
Regarding `CC1CCc2c(cnc3cc(Cl)nn23)N1c1ccc([C@H](N(C)C(=O)C2CCS(=O)(=O)CC2)C(F)(F)F)cc1` (stereo partly drawn) [CPD0072805, N-[(1S)-1-{4-[(11rel-S)-4-chloro-11-methyl-2,3,7,10-tetraazatricyclo[7.4.0.0^2,6]trideca-1(9),3,5,7-tetraen-10-yl]phenyl}-2,2,2-trifluoroethyl]-N-methyl-1,1-dioxo-1λ^6-thiane-4-carboxamide], the 50% inhibitory concentration (IC50) in experiment [1] came to 172 nM; in experiment [2], 1020 nM.

As a reminder, the IC50 is the concentration that gives 50% inhibition.
